Source: the supplement of paper PMC10307832

Legend:
Assay in all cases: relative viability (nuclei count vs DMSO), 5 days (fraction); higher = more cells survive
[1] = compound: Nc1nc(Nc2ccc3c(c2)CC[C@@H](N2CCCC2)CC3)nn1-c1cc2c(nn1)-c1ccccc1CCC2 [Bemcentinib] + NC(=O)Nc1cc(-c2cccc(F)c2)sc1C(=O)N[C@H]1CCCNC1 [AZD7762] (partner 0.2 µM)
Method in brief: (§1)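 Relative viability is defined as nuclei in treated wells over nuclei in vehicle wells. Duplicate plates were run and medians reported. Lung cancer cell lines in 1536-well plates were dosed by pin tool one day after seeding, with one drug or with a fixed anchor-drug dose plus five library-drug doses (not always all listed) in √10 steps, and nuclei were counted after 5 days.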

[2] = compound: Nc1nc(Nc2ccc3c(c2)CC[C@@H](N2CCCC2)CC3)nn1-c1cc2c(nn1)-c1ccccc1CCC2 [Bemcentinib] + Nc1ncn([C@H]2C[C@H](O)[C@@H](CO)O2)c(=O)n1 [Decitabine] (partner 2 µM)
Method in brief: as §1

[3] = compound: Nc1nc(Nc2ccc3c(c2)CC[C@@H](N2CCCC2)CC3)nn1-c1cc2c(nn1)-c1ccccc1CCC2 [Bemcentinib] + O=C(CCCCCCC(=O)Nc1ccccc1)NO [Vorinostat] (partner 1 µM)
Method in brief: as §1

[4] = compound: CNC(=O)c1ccccc1Sc1ccc2c(/C=C/c3ccccn3)n[nH]c2c1 [Axitinib] + CC1(C)CCC(c2ccc(Cl)cc2)=C(CN2CCN(c3ccc(C(=O)NS(=O)(=O)c4ccc(N[C@H](CCN5CCOCC5)CSc5ccccc5)c(S(=O)(=O)C(F)(F)F)c4)cc3)CC2)C1 [Navitoclax] (partner 0.5 µM)
Method in brief: as §1

Row | Cell Line | relative viability ([1]; first compound 0.04 µM) | relative viability ([1]; first compound 0.1265 µM) | relative viability ([1]; first compound 0.4 µM) | relative viability ([1]; first compound 1.265 µM) | relative viability ([1]; first compound 4 µM) | relative viability ([2]; first compound 0.04 µM) | relative viability ([2]; first compound 0.1265 µM) | relative viability ([2]; first compound 0.4 µM) | relative viability ([2]; first compound 1.265 µM) | relative viability ([2]; first compound 4 µM) | relative viability ([3]; first compound 0.04 µM) | relative viability ([3]; first compound 0.1265 µM) | relative viability ([3]; first compound 0.4 µM) | relative viability ([3]; first compound 1.265 µM) | relative viability ([3]; first compound 4 µM) | relative viability ([4]; first compound 0.005 µM) | relative viability ([4]; first compound 0.01581 µM) | relative viability ([4]; first compound 0.05 µM) | relative viability ([4]; first compound 0.1581 µM) | relative viability ([4]; first compound 0.5 µM)
1 | LCLC-103H | 0.764 | 0.818 | 0.851 | 0.81 | 0.852 | 0.739 | 0.735 | 0.738 | 0.812 | 0.764 | 0.774 | 0.826 | 0.8 | 0.783 | 0.883 |  |  |  |  | 
2 | NCI-H520 |  |  |  |  |  | 0.515 | 0.593 | 0.511 | 0.499 | 0.512 | 0.678 | 0.902 | 0.83 | 0.626 | 0.761 | 0.987 | 1.26 | 1.1 | 0.794 | 1.11
3 | NCI-H1975 | 0.691 | 0.702 | 0.67 | 0.687 | 0.656 | 0.336 | 0.384 | 0.394 | 0.374 | 0.459 | 0.709 | 0.805 | 0.776 | 0.808 | 0.777 | 1.24 | 1.07 | 1.14 | 1.19 | 1.17
4 | IA-LM |  |  |  |  |  |  |  |  |  |  | 0.968 | 1.38 | 0.984 | 0.965 | 0.866 | 0.88 | 0.79 | 0.944 | 0.823 | 0.829
5 | NCI-H2023 |  |  |  |  |  | 0.204 | 0.264 | 0.233 | 0.282 | 0.224 | 0.77 | 0.783 | 0.619 | 0.748 | 0.66 | 1.05 | 1.01 | 0.874 | 0.94 | 1.01
6 | SK-MES-1 |  |  |  |  |  | 0.363 | 0.361 | 0.451 | 0.315 | 0.379 | 1.1 | 1.38 | 1.17 | 1.23 | 1.24 | 1.32 | 1.2 | 1.32 | 1.25 | 1.51
7 | NCI-H1650 |  |  |  |  |  | 0.428 | 0.416 | 0.389 | 0.517 | 0.417 | 0.515 | 0.713 | 0.753 | 0.576 | 0.553 | 1.27 | 0.981 | 1.35 | 1.24 | 1.41
8 | NCI-H1792 | 0.577 | 0.888 | 0.681 | 0.442 | 0.669 | 0.582 | 0.741 | 0.594 | 0.454 | 0.63 |  |  |  |  |  | 0.637 | 0.527 | 0.62 | 0.562 | 0.366
9 | NCI-H661 |  |  |  |  |  | 0.558 | 0.654 | 0.547 | 0.57 | 0.557 | 0.774 | 0.778 | 0.849 | 0.789 | 0.838 |  |  |  |  | 
10 | NCI-H1648 | 0.579 | 0.613 | 0.709 | 0.572 | 0.638 | 0.411 | 0.413 | 0.483 | 0.569 | 0.43 | 0.598 | 0.362 | 0.385 | 0.386 | 0.457 |  |  |  |  | 
11 | NCI-H358 | 0.527 | 0.516 | 0.562 | 0.411 | 0.602 | 0.202 | 0.209 | 0.211 | 0.212 | 0.263 | 0.665 | 0.745 | 0.701 | 0.806 | 0.839 |  |  |  |  | 
